Data from US20260224602A1, “METHODS AND PHARMACEUTICAL COMPOSITIONS FOR TREATING DEMENTIA” (Neurxstem, priority 2023, published 2026).
Structures can show the parent of a compound that is named as a salt. Where two headings read alike, the source gives them in different places.

Key:
[1] = cited from earlier work
[2] = system: AD-NNOP-SPOR neural organoids; test: CGS-21680 effect on gene expression in AD-NNOP-SPOR neural organoids (Ampliseq transcriptomics); assay type: cell-based, human
Protocol: (§1) Neural Organoids derived from induced pluripotent stem cells derived from adult skin cells of AD, ADRD or MED patients were grown in vitro for 4 weeks as previous described in U.S. Pat. No. 11,435,890, incorporated by reference in its entirety herein. Transcriptomic data from these neural organoids were obtained. Differences in expression of 20,814 genes expressed in the human genome were determined between these neural organoids and those from neural organoids from a normal individual human (an individual not having/diagnosed with AD, ADRD, or MED). Detailed data analysis using Gene Card and Pubmed data bases were performed.
(§2) Human induced pluripotent stem cell-derived neural organoids were generated according to the following protocol, as set forth in U.S. Pat. No. 11,435,890, incorporated by reference in its entirety herein. Briefly, irradiated murine embryonic fibroblasts (MEF) were plated on a gelatin coated substrate in MEF media (Dulbecco's Modified Eagle Medium (DMEM) supplemented with 10% Fetal Bovine Serum, 100 units/ml penicillin, 100 microgram/ml streptomycin, and 0.25 microgram/ml Fungizone) at a density of 2×10^5 cells per well. The seeded plate was incubated at 37° C. overnight.
In Table 1, the effect of A2A receptor agonist to reverse the aberrant expression of the biomarkers in AD disease was assessed. […] Log2 fold change with a positive value indicates a […] in expression of an AD-NNOP gene when compared to Normal-NNOP and a negative number indicates an increase in gene expression.

adenosine A2A receptor = conditions: Zochi et al., 1996, cited from earlier work
[3] = system: AD-NNOP-APP neural organoids; test: PF-3845 effect on gene expression in AD-NNOP-APP neural organoids (Ampliseq transcriptomics); assay type: cell-based, human
Protocol: as §1, with “performed. […] These genes comprise a suite of biomarkers for Alzheimer's disease.” for “performed.”
as §2
It is known that FAAH inhibitor PF-3845 will raise endogenous levels of endocannabinoid anandamide receptor agonist anandamide. Consequently, PF-3845 treatment can increase endocannabinoid anandamide receptor activity despite dementia-associated downregulation. […] AD-NNOP-APP neural organoids were incubated with vehicle (0.1% DMSO; control) or PF-3845 dissolved in DMSO at 10 µM for 4 days and harvested for RNA extraction and gene expression analysis by Ampliseq™ (Thermofisher). Log2 fold change with a positive value indicates a […] in expression of an AD-NNOP gene when compared to Normal-NNOP and with a negative number an increase in gene expression. […] The expression of these genes were known to be increased in AD-NNOP-APP compared to normal (data not shown). Thus, PF-3845 or FAAH inhibitor was effective in reverting the biomarkers of AD to normalcy.

[4] = AD-NNOP-SPOR, CGS-21680 1 μM 4 days vs vehicle
[5] = AD-NNOP-APP >12 weeks in culture, PF-3845 10 µM 4 days vs vehicle (0.1% DMSO), positive = decrease in expression

Compound: CCNC(=O)[C@H]1O[C@@H](n2cnc3c(N)nc(NCCc4ccc(CCC(=O)O)cc4)nc32)[C@H](O)[C@@H]1O [CGS-21680, 2-p-(2-Carboxyethyl) phenethylamino-5′-N-ethylcarboxamidoadenosine hydrochloride hydrate]
- solubility in 45% (w/v) aq 2-hydroxypropyl-β-cyclodextrin ([1]; 45% (w/v) aq 2-hydroxypropyl-β-cyclodextrin): ≤ 20 mg/mL
- solubility in DMSO [1]: up to 3.4 mg/mL
- effect on TBX3 expression ([2]; AD-NNOP SPOR, compared to control treatment): decreased TBX3 expression
- effect on expression of abnormal AD genes [2, 4]: invert the expression of the abnormal genes in AD and revert them back to normalcy
- number of differentially expressed genes vs control group [2, 4]: 2023 genes

Compound: O=C(Nc1cccnc1)N1CCC(Cc2cccc(Oc3ccc(C(F)(F)F)cn3)c2)CC1 [PF-3845]
- effect on expression of measured AD biomarker genes ([3]; AD-NNOP APP, PF-3845 compared to control treatment): expression of the measured genes were decreased
- ADM log2 Fold Change [3, 5]: 2.14
- BGN log2 Fold Change [3, 5]: 2.50
- CD36 log2 Fold Change [3, 5]: 2.86
- MAP3K19 log2 Fold Change [3, 5]: 2.56
- SLC16A3 log2 Fold Change [3, 5]: 2.05
- number of differentially expressed genes vs control group ([3]; AD-NNOP-APP, PF-3845 10 µM 4 days vs vehicle): 2111 genes

Compound: CCNC(=O)[C@H]1O[C@@H](n2cnc3c(N)nc(C#CC[C@H]4CC[C@H](C(=O)OC)CC4)nc32)[C@H](O)[C@@H]1O [apadenoson, methyl (1R,4r)-4-(3-(6-amino-9-((2R,3R,4S,5S)-5-(ethylcarbamoyl)-3,4-dihydroxytetrahydrofuran-2-yl)-9H-purin-2-yl)prop-2-yn-1-yl)cyclohexane-1-carboxylate]
- solubility in DMSO ([1]; MedKoo Biosciences): Soluble in DMSO
